# Experimental data: PubChem BioAssay (NCI)
#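 Briefly, cells in 96-well plates were exposed to five compound concentrations for 48 h, and endpoints were estimated by linear interpolation. TGI: concentration producing complete growth inhibition.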
# Legend:
# Assay in all cases: DTP human tumour cell line panel, 48 h
# [1] = tested on: 786-0 renal
# [2] = tested on: A498 renal
# [3] = tested on: A549 NSCLC
# [4] = tested on: ACHN renal
# [5] = tested on: CAKI-1 renal
# [6] = tested on: CCRF-CEM leukemia
# [7] = tested on: COLO 205 colon
# [8] = tested on: DLD-1 colon
# [9] = tested on: DMS 114 small cell lung
# [10] = tested on: DMS 273 small cell lung
# [11] = tested on: EKVX NSCLC
# [12] = tested on: HCC-2998 colon
# [13] = tested on: HCT-116 colon
# [14] = tested on: HCT-15 colon
# [15] = tested on: HL-60(TB) leukemia
# [16] = tested on: HOP-18 NSCLC
# [17] = tested on: HOP-62 NSCLC
# [18] = tested on: HOP-92 NSCLC
# [19] = tested on: HT29 colon
# [20] = tested on: IGROV1 ovarian
# [21] = tested on: K-562 leukemia
# [22] = tested on: KM12 colon
# [23] = tested on: KM20L2 colon
# [24] = tested on: LOX IMVI melanoma
# [25] = tested on: LXFL 529 NSCLC
# [26] = tested on: M14 melanoma
# [27] = tested on: M19-MEL melanoma
# [28] = tested on: MALME-3M melanoma
# [29] = tested on: MOLT-4 leukemia
# [30] = tested on: NCI-H226 lung
# [31] = tested on: NCI-H23 lung
# [32] = tested on: NCI-H460 lung
# [33] = tested on: NCI-H522 lung
# [34] = tested on: OVCAR-3 ovarian
# [35] = tested on: OVCAR-4 ovarian
# [36] = tested on: OVCAR-5 ovarian
# [37] = tested on: OVCAR-8 ovarian
# [38] = tested on: RPMI-8226 leukemia
# [39] = tested on: RXF 393 renal
# [40] = tested on: RXF-631 renal
# [41] = tested on: SF-268 CNS
# [42] = tested on: SF-295 CNS
# [43] = tested on: SF-539 CNS
# [44] = tested on: SK-MEL-2 melanoma
# [45] = tested on: SK-MEL-28 melanoma
# [46] = tested on: SK-MEL-5 melanoma
# [47] = tested on: SK-OV-3 ovarian
# [48] = tested on: SN12C renal
# [49] = tested on: SNB-19 CNS
# [50] = tested on: SNB-75 CNS
# [51] = tested on: SNB-78 CNS
# [52] = tested on: SR leukemia
# [53] = tested on: SW-620 colon
# [54] = tested on: TK-10 renal
# [55] = tested on: U251 CNS
# [56] = tested on: UACC-257 melanoma
# [57] = tested on: UACC-62 melanoma
# [58] = tested on: UO-31 renal
# [59] = tested on: XF 498 CNS
smiles,measurement,setting,value
COc1ccc(C(=O)CC(=O)C(=O)Nc2ccc(C)c(C)c2)cc1,TGI,[1],> 100 µM
same,TGI,[2],> 100 µM
same,TGI,[3],> 100 µM
same,TGI,[4],> 100 µM
same,TGI,[5],> 100 µM
same,TGI,[6],> 74.5 µM
same,TGI,[7],> 82.4 µM
same,TGI,[8],> 100 µM
same,TGI,[9],> 58.5 µM
same,TGI,[10],> 100 µM
same,TGI,[11],> 100 µM
same,TGI,[12],> 100 µM
same,TGI,[13],> 64.4 µM
same,TGI,[14],> 57.1 µM
same,TGI,[15],> 64.3 µM
same,TGI,[16],> 100 µM
same,TGI,[17],> 100 µM
same,TGI,[18],> 100 µM
same,TGI,[19],> 100 µM
same,TGI,[20],> 100 µM
same,TGI,[21],> 87 µM
same,TGI,[22],> 100 µM
same,TGI,[23],> 100 µM
same,TGI,[24],> 55.7 µM
same,TGI,[25],> 100 µM
same,TGI,[26],> 100 µM
same,TGI,[27],> 100 µM
same,TGI,[28],> 100 µM
same,TGI,[29],> 100 µM
same,TGI,[30],> 100 µM
same,TGI,[31],> 100 µM
same,TGI,[32],> 56.8 µM
same,TGI,[33],> 100 µM
same,TGI,[34],> 100 µM
same,TGI,[35],> 100 µM
same,TGI,[36],> 93.7 µM
same,TGI,[37],> 100 µM
same,TGI,[38],> 68 µM
same,TGI,[39],97.9 µM
same,TGI,[40],> 100 µM
same,TGI,[41],> 100 µM
same,TGI,[42],> 100 µM
same,TGI,[43],> 100 µM
same,TGI,[44],> 100 µM
same,TGI,[45],> 100 µM
same,TGI,[46],> 100 µM
same,TGI,[47],> 100 µM
same,TGI,[48],> 100 µM
same,TGI,[49],> 100 µM
same,TGI,[50],94.6 µM
same,TGI,[51],> 100 µM
same,TGI,[52],> 100 µM
same,TGI,[53],> 49.2 µM
same,TGI,[54],> 100 µM
same,TGI,[55],> 100 µM
same,TGI,[56],> 100 µM
same,TGI,[57],> 100 µM
same,TGI,[58],> 100 µM
O=C(Nc1cccc([N+](=O)[O-])c1)C(=O)C(C(=O)c1ccccc1F)C1OC(=O)C2C=CC=CC21 (stereo unspecified),TGI,[2],> 100 µM
same,TGI,[3],> 100 µM
same,TGI,[4],> 100 µM
same,TGI,[5],> 100 µM
same,TGI,[6],> 100 µM
same,TGI,[7],> 100 µM
same,TGI,[8],> 100 µM
same,TGI,[10],> 100 µM
same,TGI,[11],> 100 µM
same,TGI,[12],> 100 µM
same,TGI,[13],48.3 µM
same,TGI,[14],> 100 µM
same,TGI,[15],64 µM
same,TGI,[17],> 100 µM
same,TGI,[18],> 100 µM
same,TGI,[19],> 100 µM
same,TGI,[20],> 100 µM
same,TGI,[21],> 100 µM
same,TGI,[22],> 100 µM
same,TGI,[23],> 100 µM
same,TGI,[24],51.7 µM
same,TGI,[25],> 100 µM
same,TGI,[26],> 100 µM
same,TGI,[27],> 100 µM
same,TGI,[29],> 100 µM
same,TGI,[30],52.9 µM
same,TGI,[31],> 100 µM
same,TGI,[32],> 100 µM
same,TGI,[33],55.7 µM
same,TGI,[35],> 100 µM
same,TGI,[36],> 100 µM
same,TGI,[37],> 100 µM
same,TGI,[38],> 100 µM
same,TGI,[39],48.6 µM
same,TGI,[41],70.6 µM
same,TGI,[42],> 100 µM
same,TGI,[43],67.5 µM
same,TGI,[44],> 100 µM
same,TGI,[45],> 100 µM
same,TGI,[46],> 100 µM
same,TGI,[47],> 100 µM
same,TGI,[48],> 100 µM
same,TGI,[49],> 100 µM
same,TGI,[50],84.9 µM
same,TGI,[51],> 100 µM
same,TGI,[52],84.7 µM
same,TGI,[53],> 100 µM
same,TGI,[54],> 100 µM
same,TGI,[55],77.7 µM
same,TGI,[56],> 100 µM
same,TGI,[57],> 100 µM
same,TGI,[58],> 100 µM
same,TGI,[59],> 100 µM
